The record followed here is ChEMBL document CHEMBL4371054, “Dual inhibition of Kif15 by oxindole and quinazolinedione chemical probes” (Bioorg Med Chem Lett, 2019).

In general, inhibition refers to the drop in the measured response relative to a control, in per cent. What is called pIC50 is the IC50 on a negative log10 scale, so that one unit is a factor of ten.

pIC50: −log10 of the molar value. The source made the active and inactive calls. The rule behind the calls is not given here.

The target in test [1] is T1, Kinesin-like protein KIF15 (Homo sapiens) (UniProt Q9NS87).
T1 sequence (whole entry): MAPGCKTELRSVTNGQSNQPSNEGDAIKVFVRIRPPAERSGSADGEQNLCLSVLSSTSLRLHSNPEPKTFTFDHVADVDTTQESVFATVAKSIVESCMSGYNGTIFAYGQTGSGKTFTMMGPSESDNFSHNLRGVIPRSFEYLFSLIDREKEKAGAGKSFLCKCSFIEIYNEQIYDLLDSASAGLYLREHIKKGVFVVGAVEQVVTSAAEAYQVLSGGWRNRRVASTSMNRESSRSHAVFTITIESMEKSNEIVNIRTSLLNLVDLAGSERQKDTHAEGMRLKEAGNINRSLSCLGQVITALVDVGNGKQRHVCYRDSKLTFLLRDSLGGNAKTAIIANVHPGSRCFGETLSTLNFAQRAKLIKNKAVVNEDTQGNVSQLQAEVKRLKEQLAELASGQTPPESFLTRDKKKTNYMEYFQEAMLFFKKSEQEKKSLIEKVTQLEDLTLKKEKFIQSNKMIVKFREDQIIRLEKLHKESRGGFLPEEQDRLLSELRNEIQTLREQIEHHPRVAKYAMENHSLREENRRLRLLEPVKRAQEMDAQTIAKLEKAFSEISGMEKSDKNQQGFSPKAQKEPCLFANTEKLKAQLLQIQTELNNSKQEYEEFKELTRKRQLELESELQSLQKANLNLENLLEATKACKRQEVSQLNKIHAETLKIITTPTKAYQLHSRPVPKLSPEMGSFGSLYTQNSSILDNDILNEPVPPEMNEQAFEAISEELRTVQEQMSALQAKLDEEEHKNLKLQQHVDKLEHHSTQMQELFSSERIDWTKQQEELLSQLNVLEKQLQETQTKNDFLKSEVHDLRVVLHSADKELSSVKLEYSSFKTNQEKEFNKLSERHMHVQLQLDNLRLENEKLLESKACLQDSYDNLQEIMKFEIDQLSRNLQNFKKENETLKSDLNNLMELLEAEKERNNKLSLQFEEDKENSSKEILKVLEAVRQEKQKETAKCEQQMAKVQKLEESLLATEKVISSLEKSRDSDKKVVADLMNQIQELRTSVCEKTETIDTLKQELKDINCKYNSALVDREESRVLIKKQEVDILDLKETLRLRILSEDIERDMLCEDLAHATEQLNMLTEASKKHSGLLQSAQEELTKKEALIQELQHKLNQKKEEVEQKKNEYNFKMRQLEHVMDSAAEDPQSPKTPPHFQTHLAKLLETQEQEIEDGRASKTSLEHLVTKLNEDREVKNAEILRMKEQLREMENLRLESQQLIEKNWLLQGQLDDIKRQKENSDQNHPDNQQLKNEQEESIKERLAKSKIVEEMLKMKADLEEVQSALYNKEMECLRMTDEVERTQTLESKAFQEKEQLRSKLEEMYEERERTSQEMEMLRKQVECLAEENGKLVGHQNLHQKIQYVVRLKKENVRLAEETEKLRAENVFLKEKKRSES
The test can be described thus: Inhibition of recombinant His6-tagged Kif15 (N700 residues) (unknown origin) expressed in HeLa cells assessed as reduction in Alexa-594 labelled microtubule gliding at 750 nM measured every 2 secs for 20 secs by epifluorescence microscopic analysis (reference value: 1%). Format: cell-based.

Test [2] addresses T1, Kinesin-like protein KIF15 (Homo sapiens). As to the kind of experiment: Inhibition of recombinant His6-tagged Kif15 ATPase activity (N420 residues) (unknown origin) expressed in HeLa cells at 10 uM using microtubule as substrate preincubated for 15 mins followed by ATP addition and measured after 20 mins by ADP-Glo luminescence assay relative to control.
For test [3], the target named is T2, Kinesin-like protein KIF15 (Homo sapiens, UniProt Q9NS87).
T2 sequence (Q9NS87 whole entry): T1 sequence (whole entry)
The test can be described thus: Inhibition of recombinant His6-tagged Kif15 ATPase activity (N420 residues) (unknown origin) expressed in HeLa cells using microtubule as substrate preincubated for 15 mins followed by ATP addition and measured after 20 mins by ADP-Glo luminescence assay. For orientation: In ADP-Glo the light output rises with the ADP produced.

For test [4], the target named is T2, Kinesin-like protein KIF15. The test can be described thus: Inhibition of recombinant His6-tagged Kif15 (N700 residues) (unknown origin) expressed in HeLa cells assessed as reduction in Alexa-594 labelled microtubule gliding measured every 2 secs for 20 secs by epifluorescence microscopic analysis. Type of test: cell-based.
The target in test [5] is T1, Kinesin-like protein KIF15 (Homo sapiens). The test can be described thus: Reversible inhibition of recombinant His6-tagged Kif15 (N700 residues) (unknown origin) expressed in HeLa cells assessed as reduction in Alexa-594 labelled microtubule gliding at 10 uM treated for 1 min followed by compound washout and measured every 2 secs for 1 min by epifluorescence microscopic analysis. Format: cell-based.

The target is the same in test [6]. As to the kind of experiment: Inhibition of Kif15 in TP53-deficient human RPE1 cells assessed as cells with bipolar pre-anaphase microtubule structure at 25 uM after 24 hrs by Hoechst 33342 staining based immunofluorescence microscopic analysis (reference value: 90 to 94%). Further details: scale not given: the % may be the effect or the level left.
For test [7] the target is unchanged. The test can be described thus: Inhibition of Kif15 in TP53-deficient human RPE1 cells assessed as reduction in spindle-bound Kif15 level at 25 uM after 24 hrs by Hoechst 33342 staining based immunofluorescence microscopic analysis relative to control.
Test [8] shares this target. As to the kind of experiment: Inhibition of Kif15 in TP53-deficient human RPE1 cells assessed as reduction in Kif15 level at 25 uM after 24 hrs by Western blot analysis relative to control.
Test [9] shares this target. The test can be described thus: Inhibition of Kif15 in TP53-deficient human RPE1 cells assessed as effect on spindle length at 25 uM after 24 hrs by Hoechst 33342 staining based immunofluorescence microscopic analysis (reference value: 11.4 +/- 0.2 um).
Test [10] has the same target. The test can be described thus: Inhibition of Kif15 in K51-resistant human KIRC1 cells assessed as cells with monopolar spindles at 25 uM after 24 hrs by Hoechst 33342 staining based immunofluorescence microscopic analysis (reference value: 43 to 49%). Further details: scale not given: the % may be the effect or the level left.
In test [11] the target is T2, Kinesin-like protein KIF15. The test can be described thus: Inhibition of recombinant C-terminal truncated His6-tagged Kif15 (N700 residues) (unknown origin) expressed in Escherichia coli BL21 (DE3) assessed as reduction in microtubule gliding measured up to 2 mins.
The target of test [12] is T1, Kinesin-like protein KIF15 (Homo sapiens). As to the kind of experiment: ATP competitive inhibition of recombinant His6-tagged Kif15 ATPase activity (N700 residues) (unknown origin) expressed in HeLa cells at 5 uM using microtubule as substrate preincubated for 30 mins followed by varying levels of ATP addition by double reciprocal Lineweaver-Burk plot analysis.

Consider `O=C1Nc2ccc(I)cc2/C1=C/c1cc(F)c(O)c(F)c1`, for which, in test [1], the inhibition amounted to 4.8%.

On to `O=C1Nc2ccc(I)cc2/C1=C/c1cc(Cl)c(O)c(Cl)c1`, for which, in [1], the inhibition stood at 15%.

`O=C1Nc2ccc(C(=O)c3ccco3)cc2/C1=C/c1cc(F)c(O)c(Br)c1`: the inhibition in test [1] worked out at 38%.

`O=C1Nc2ccc(C(=O)c3ccco3)cc2/C1=C/c1cc(F)c(O)c(F)c1`: the inhibition in [1] was 21%.

As to `O=C1Nc2ccc(C(=O)N3CCCC3)cc2/C1=C/c1cc(Cl)c(O)c(Cl)c1`, the inhibition in test [1] is -10%.

As to `O=C1Nc2ccc(C(=O)c3ccco3)cc2/C1=C/c1ccncc1`, the inhibition in test [1] turned out to be 0.8%.

In the case of `O=C1Nc2ccc(C(=O)c3ccco3)cc2/C1=C/c1cc(Cl)c(O)c(Br)c1`, the inhibition in test [1] stood at 62%.

In the case of `O=C1Nc2ccc(-c3ccccn3)cc2/C1=C/c1cc(Cl)c(O)c(Cl)c1`, the inhibition in test [1] is 7.3%.

For `O=C1Nc2ccc(-c3ccco3)cc2/C1=C/c1cc(Cl)c(O)c(Cl)c1`, the inhibition in [1] is 33%.

As to `COc1ccc(/C=C2\C(=O)Nc3ccc(C(=O)c4ccco4)cc32)cc1Br`, the inhibition in test [1] amounted to 2.3%.

For the molecule `O=C1Nc2ccc(C(=O)c3ccco3)cc2/C1=C/c1ccc(O)c(C(F)(F)F)c1`, the inhibition in test [1] was 9.5%.

Consider `O=C1Nc2ccc(C(=O)c3ccco3)cc2/C1=C/c1ccc(O)nc1`, for which, in test [1], the inhibition is 26.5%.

With `O=C1Nc2ccc(I)cc2/C1=C/c1cc(Br)c(O)c(Br)c1`, the inhibition in [2] amounted to 90%. Further, the pIC50 in test [3] is 5.60.

With `CN(C)C(=O)c1ccc2c(c1)/C(=C/c1cc(Cl)c(O)c(Cl)c1)C(=O)N2`, the inhibition in [1] worked out at 15.3%.

For the molecule `O=C1Nc2ccc(-c3cccc(F)c3)cc2/C1=C/c1cc(Cl)c(O)c(Cl)c1`, the inhibition in test [1] is -5.8%.

As for `O=C1Nc2ccc(C(=O)c3ccco3)cc2/C1=C/c1cc(Br)c(O)c(Br)c1`, the inhibition in test [1] turned out to be 65%.

In the case of `O=C1Nc2ccc(C(=O)c3ccco3)cc2/C1=C/c1ccnc(Cl)c1`, the inhibition in [1] stood at 15.8%.

For the molecule `CCOC(=O)c1sc(NC(=O)[C@H](C(C)C)n2c(=O)[nH]c3ccccc3c2=O)nc1C`, the negative logarithm of the IC50 (pIC50) was 6.70 in test [4] and 5.76 in [11]. Further, the inhibition entry in [5] and in test [12] was “Active” throughout. Besides, the Activity in test [6] amounted to 96%; in test [9], 9.9 µm; in test [10] it was 84%. Also, the inhibition entry in [7] is “inactive”. In addition, the inhibition in test [8] amounted to 15%.

As for `O=C1Nc2ccc(C(=O)c3ccco3)cc2/C1=C/c1cc(Br)cc(Br)c1`, in [1], the inhibition was 16%.

On to `O=C1Nc2ccc(C(=O)c3ccco3)cc2/C1=C/c1ccc(O)c(Br)c1`, for which the inhibition in test [1] worked out at 23%.

In the case of `O=C1Nc2ccc(C(=O)c3ccco3)cc2/C1=C/c1cc(I)c(O)c(I)c1`, the inhibition in test [1] worked out at 26%.

`COc1cc(/C=C2\C(=O)Nc3ccc(C(=O)c4ccco4)cc32)cc(Cl)c1O`: the inhibition in test [1] is -3.5%.

In the case of `O=C1Nc2ccc(C(=O)c3ccco3)cc2/C1=C/c1ccc(Br)c(O)c1`, the inhibition in test [1] is -5.6%.

Consider `Cc1cc(/C=C2\C(=O)Nc3ccc(C(=O)c4ccco4)cc32)cc(C)c1O`, for which the inhibition in test [1] amounted to 9%.

Take `O=C1Nc2ccc(C(=O)c3ccco3)cc2/C1=C/c1cccc(O)c1`: the inhibition in [1] amounted to 8.21%.
